pEC50: −log10 of the molar value. Where two headings read alike, the source gives them in different places. Square brackets hold non-standard residues; d marks the D form. Peptide text beside a SMILES is read from it. αMeF = C[C@](N)(Cc1ccccc1)C(=O)O; αMeK = C[C@](N)(CCCCN)C(=O)O; αMeS = C[C@](N)(CO)C(=O)O; Aib = CC(C)(N)C(=O)O
Columns and labels:
Assay type in all cases: cell-based
[1] = target: T1, human GLP-1 receptor (GLP-1R) (Homo sapiens, UniProt P43220); test: cAMP assay, human GLP-1R cells; conditions: for pEC50: cAMP assay; for EC50: mean of n1 and n2, read-out: Mean pM GLP-1R
T1 construct: expressed in transfected cells
T1 sequence (P43220 24-463): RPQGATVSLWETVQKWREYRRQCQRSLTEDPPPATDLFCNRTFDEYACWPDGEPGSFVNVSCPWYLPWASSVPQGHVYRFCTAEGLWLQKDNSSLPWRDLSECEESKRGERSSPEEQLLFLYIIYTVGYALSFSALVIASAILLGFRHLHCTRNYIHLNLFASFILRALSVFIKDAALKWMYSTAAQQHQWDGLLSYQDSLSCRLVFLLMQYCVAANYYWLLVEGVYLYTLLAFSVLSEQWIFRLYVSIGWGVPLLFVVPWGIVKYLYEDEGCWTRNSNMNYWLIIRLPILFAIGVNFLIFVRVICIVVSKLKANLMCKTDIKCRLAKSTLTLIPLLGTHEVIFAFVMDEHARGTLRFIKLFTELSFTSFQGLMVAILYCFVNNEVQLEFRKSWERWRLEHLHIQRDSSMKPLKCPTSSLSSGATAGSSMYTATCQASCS
Method in brief: (§1)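 Peptide-stimulated cAMP measured by two-step HTRF after a 30 min room-temperature incubation with receptor-expressing cells (hGLP-1R, hGIPR at 1×10^5 cells/ml; hGCGR at 2×10^5 cells/ml). Duplicate dilutions; EC50 from 4-parameter logistic fit of % Delta F.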

[2] = target: T2, human glucagon receptor (GCGR) (Homo sapiens, UniProt P47871); test: cAMP assay, human GCGR cells; conditions: cAMP assay
T2 construct: expressed in transfected cells
T2 sequence (P47871 26-477): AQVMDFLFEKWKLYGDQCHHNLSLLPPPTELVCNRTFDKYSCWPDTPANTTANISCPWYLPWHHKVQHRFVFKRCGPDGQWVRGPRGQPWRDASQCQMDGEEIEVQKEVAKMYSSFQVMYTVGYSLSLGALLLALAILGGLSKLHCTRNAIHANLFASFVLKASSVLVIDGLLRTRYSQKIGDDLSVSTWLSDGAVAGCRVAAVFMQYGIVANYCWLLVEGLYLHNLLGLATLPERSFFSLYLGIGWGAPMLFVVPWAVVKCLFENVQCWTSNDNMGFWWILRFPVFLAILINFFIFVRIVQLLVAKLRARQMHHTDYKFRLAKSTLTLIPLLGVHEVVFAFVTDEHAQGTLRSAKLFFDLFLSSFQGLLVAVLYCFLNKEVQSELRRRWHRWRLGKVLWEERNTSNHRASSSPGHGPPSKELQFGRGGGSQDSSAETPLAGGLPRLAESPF
Method in brief: as §1

[3] = target: T3, human glucose-dependent insulinotropic peptide receptor (GIPR) (Homo sapiens, UniProt P48546); test: cAMP assay, human GIPR cells; conditions: cAMP assay
T3 construct: expressed in transfected cells
T3 sequence (P48546 22-466): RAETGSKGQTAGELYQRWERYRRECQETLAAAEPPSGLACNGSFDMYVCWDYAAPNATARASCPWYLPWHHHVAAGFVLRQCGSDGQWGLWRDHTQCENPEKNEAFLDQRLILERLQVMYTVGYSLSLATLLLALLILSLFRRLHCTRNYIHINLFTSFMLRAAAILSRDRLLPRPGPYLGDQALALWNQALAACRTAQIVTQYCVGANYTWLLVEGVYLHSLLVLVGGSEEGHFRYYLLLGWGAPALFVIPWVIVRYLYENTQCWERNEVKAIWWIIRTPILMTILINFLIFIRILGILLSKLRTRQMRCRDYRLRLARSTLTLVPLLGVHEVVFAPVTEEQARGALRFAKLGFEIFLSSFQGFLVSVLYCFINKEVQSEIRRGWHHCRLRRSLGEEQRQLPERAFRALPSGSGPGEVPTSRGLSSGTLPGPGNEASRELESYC
Method in brief: as §1

[4] = first determination (n1), read-out: Primary assay EC50 GLP-1R n1
[5] = second determination (n2), read-out: Primary assay EC50 GLP-1R n2
[6] = first determination (n1), read-out: Primary assay EC50 Gluc-R (n1)
[7] = second determination (n2), read-out: Primary assay EC50 Gluc-R (n2)
[8] = first determination (n1), read-out: Primary assay EC50 GIP-R (n1)
[9] = second determination (n2), read-out: Primary assay EC50 GIP-R (n2)

Row | SMILES | pEC50 [1, 4] | pEC50 [1, 5] | EC50 [1] | pEC50 [2, 6] | pEC50 [2, 7] | pEC50 [3, 8] | pEC50 [3, 9] | pEC50 ([2]; Primary assay EC50 Gluc-R (n1), first determination (n1)) | pEC50 ([2]; read-out: Primary assay EC50 Gluc-R (n2), second determination (n2)) | pEC50 ([3]; Primary assay EC50 GIP-R (n1), first determination (n1)) | pEC50 ([3]; read-out: Primary assay EC50 GIP-R (n2), second determination (n2))
1 | CC[C@H](C)[C@H](NC(=O)[C@](C)(Cc1ccccc1)NC(=O)[C@H](CCC(=O)O)NC(=O)[C@](C)(CCCCN)NC(=O)[C@H](C)NC(=O)[C@H](C)NC(=O)[C@H](CCC(=O)O)NC(=O)CNC(=O)[C@H](CCC(=O)O)NC(=O)[C@H](CC(C)C)NC(=O)[C@](C)(Cc1ccccc1)NC(=O)[C@H](CO)NC(=O)[C@](C)(CO)NC(=O)[C@@H](NC(=O)[C@H](CC(=O)O)NC(=O)[C@H](CC(=O)O)NC(=O)[C@@H](NC(=O)[C@](C)(Cc1ccccc1)NC(=O)[C@H](CO)NC(=O)CNC(=O)[C@H](CCC(=O)O)NC(=O)C(C)(C)NC(=O)[C@@H](N)Cc1c[nH]cn1)[C@@H](C)O)C(C)C)C(=O)N[C@@H](C)C(=O)N[C@@](C)(Cc1ccccc1)C(=O)N[C@H](C(=O)N[C@H](C(=O)N[C@@](C)(CCCCN)C(=O)NCC(=O)NCC(N)=O)C(C)C)C(C)C [compound 27] (H-H[Aib]EGS[αMeF]TDDV[αMeS]S[αMeF]LEGEAA[αMeK]E[αMeF]IA[αMeF]VV[αMeK]GG-NH2; N-terminus assumed) | 9.38 | 9.32 | 446 pM | ≤ 7.00 | 7.40 | ≤ 7.00 | ≤ 7.00 |  |  |  | 
2 | CC[C@H](C)[C@H](NC(=O)[C@](C)(Cc1ccccc1)NC(=O)[C@H](CCC(=O)O)NC(=O)[C@](C)(CCCCN)NC(=O)[C@H](C)NC(=O)[C@H](C)NC(=O)[C@H](CCC(=O)O)NC(=O)CNC(=O)[C@H](CCC(=O)O)NC(=O)[C@H](CC(C)C)NC(=O)[C@](C)(Cc1ccccc1)NC(=O)[C@H](CO)NC(=O)[C@H](CO)NC(=O)[C@@H](NC(=O)[C@H](CC(=O)O)NC(=O)[C@](C)(CO)NC(=O)[C@@H](NC(=O)[C@](C)(Cc1ccccc1)NC(=O)[C@H](CO)NC(=O)CNC(=O)[C@H](CCC(=O)O)NC(=O)C(C)(C)NC(=O)[C@@H](N)Cc1c[nH]cn1)[C@@H](C)O)C(C)C)C(=O)N[C@@H](C)C(=O)N[C@@](C)(Cc1ccccc1)C(=O)N[C@H](C(=O)N[C@H](C(=O)N[C@@](C)(CCCCN)C(=O)NCC(=O)NCC(N)=O)C(C)C)C(C)C [compound 16] | 7.96 | 8.03 | 10100 pM | ≤ 7.00 | ≤ 7.00 | ≤ 7.00 | ≤ 7.00 |  |  |  | 
3 | CCCCCCCCCCCCCCCC(=O)N[C@@H](CCC(=O)NCCCC[C@H](NC(=O)[C@@H](N)Cc1c[nH]cn1)C(=O)N[C@@H](CCC(=O)O)C(=O)NCC(=O)N[C@@H](CO)C(=O)N[C@@](C)(Cc1ccccc1)C(=O)N[C@H](C(=O)N[C@@H](CO)C(=O)N[C@@H](CC(=O)O)C(=O)N[C@H](C(=O)N[C@@](C)(CO)C(=O)N[C@@H](CO)C(=O)N[C@@](C)(Cc1ccccc1)C(=O)N[C@@H](CC(C)C)C(=O)N[C@@H](CCC(=O)O)C(=O)NCC(=O)N[C@@H](CCC(=O)O)C(=O)N[C@@H](C)C(=O)N[C@@H](C)C(=O)N[C@@](C)(CCCCN)C(=O)N[C@@H](CCC(=O)O)C(=O)N[C@@](C)(Cc1ccccc1)C(=O)N[C@H](C(=O)N[C@@H](C)C(=O)N[C@@](C)(Cc1ccccc1)C(=O)N[C@H](C(=O)N[C@H](C(=O)N[C@@](C)(CCCCN)C(=O)NCC(=O)NCC(N)=O)C(C)C)C(C)C)[C@@H](C)CC)C(C)C)[C@@H](C)O)C(=O)O [compound 98] | ≤ 7.55 | ≤ 7.55 | ≥ 27500 pM | ≤ 7.55 | ≤ 7.55 | ≤ 7.55 | ≤ 7.55 |  |  |  | 
4 | CC[C@H](C)[C@H](NC(=O)[C@](C)(Cc1ccccc1)NC(=O)[C@H](CCC(=O)O)NC(=O)[C@H](CCCCNC(=O)CC[C@H](NC(=O)CC[C@H](NC(=O)CCCCCCCCCCCOc1ccc(C(=O)O)cc1)C(=O)O)C(=O)O)NC(=O)[C@H](C)NC(=O)[C@H](C)NC(=O)[C@H](CCC(=O)O)NC(=O)CNC(=O)[C@H](CCC(=O)O)NC(=O)[C@H](CC(C)C)NC(=O)[C@](C)(Cc1ccccc1)NC(=O)[C@H](CO)NC(=O)[C@](C)(CO)NC(=O)[C@@H](NC(=O)[C@H](CC(=O)O)NC(=O)[C@H](CO)NC(=O)[C@@H](NC(=O)[C@](C)(Cc1ccccc1)NC(=O)[C@H](CO)NC(=O)CNC(=O)[C@H](CCC(=O)O)NC(=O)C(C)(C)NC(=O)[C@@H](N)Cc1c[nH]cn1)[C@@H](C)O)C(C)C)C(=O)N[C@@H](C)C(=O)N[C@@](C)(Cc1ccccc1)C(=O)N[C@H](C(=O)N[C@H](C(=O)N[C@@](C)(CCCCN)C(=O)NCC(=O)NCC(N)=O)C(C)C)C(C)C [compound 138] | 10.72 | 10.82 | 17.2 pM |  |  |  |  | ≤ 7.59 | ≤ 7.59 | ≤ 7.59 | ≤ 7.59

The remaining molecules from weak to strong by pEC50 [1, 4], led by results:

Row | pEC50 [1, 4] | pEC50 [1, 5] | EC50 [1] | pEC50 [2, 6] | pEC50 [2, 7] | pEC50 [3, 8] | pEC50 [3, 9] | SMILES | pEC50 ([2]; Primary assay EC50 Gluc-R (n1), first determination (n1)) | pEC50 ([2]; read-out: Primary assay EC50 Gluc-R (n2), second determination (n2)) | pEC50 ([3]; Primary assay EC50 GIP-R (n1), first determination (n1)) | pEC50 ([3]; read-out: Primary assay EC50 GIP-R (n2), second determination (n2))
5 | 9.42 | 9.92 | 251 pM | ≤ 7.55 | ≤ 7.55 | ≤ 7.55 | ≤ 7.55 | CCCCCCCCCCCCCCCCCC(=O)NCCCCCC(=O)NCCCC[C@H](NC(=O)[C@@H](NC(=O)[C@@H](NC(=O)[C@](C)(Cc1ccccc1)NC(=O)[C@H](C)NC(=O)[C@@H](NC(=O)[C@](C)(Cc1ccccc1)NC(=O)[C@H](CCC(=O)O)NC(=O)[C@](C)(CCCCN)NC(=O)[C@H](C)NC(=O)[C@H](C)NC(=O)[C@H](CCC(=O)O)NC(=O)CNC(=O)[C@H](CCC(=O)O)NC(=O)[C@H](CC(C)C)NC(=O)[C@](C)(Cc1ccccc1)NC(=O)[C@H](CO)NC(=O)[C@](C)(CO)NC(=O)[C@@H](NC(=O)[C@H](CC(=O)O)NC(=O)[C@H](CO)NC(=O)[C@@H](NC(=O)[C@](C)(Cc1ccccc1)NC(=O)[C@H](CO)NC(=O)CNC(=O)[C@H](CCC(=O)O)NC(=O)C(C)(C)NC(=O)[C@@H](N)Cc1c[nH]cn1)[C@@H](C)O)C(C)C)[C@@H](C)CC)C(C)C)C(C)C)C(=O)NCC(=O)NCC(N)=O [compound 185] |  |  |  | 
6 | 10.00 | 9.82 | 123 pM | ≤ 7.00 | 7.52 | ≤ 7.00 | ≤ 7.00 | CC[C@H](C)[C@H](NC(=O)[C@](C)(Cc1ccccc1)NC(=O)[C@H](CCC(=O)O)NC(=O)[C@](C)(CCCCN)NC(=O)[C@H](C)NC(=O)[C@H](C)NC(=O)[C@H](CCC(=O)O)NC(=O)CNC(=O)[C@H](CCC(=O)O)NC(=O)[C@H](CC(C)C)NC(=O)[C@](C)(Cc1ccccc1)NC(=O)[C@H](CO)NC(=O)[C@](C)(CO)NC(=O)[C@@H](NC(=O)[C@H](CC(=O)O)NC(=O)[C@H](C)NC(=O)[C@@H](NC(=O)[C@](C)(Cc1ccccc1)NC(=O)[C@H](CO)NC(=O)CNC(=O)[C@H](CCC(=O)O)NC(=O)C(C)(C)NC(=O)[C@@H](N)Cc1c[nH]cn1)[C@@H](C)O)C(C)C)C(=O)N[C@@H](C)C(=O)N[C@@](C)(Cc1ccccc1)C(=O)N[C@H](C(=O)N[C@H](C(=O)N[C@@](C)(CCCCN)C(=O)NCC(=O)NCC(N)=O)C(C)C)C(C)C [compound 26] (H-H[Aib]EGS[αMeF]TADV[αMeS]S[αMeF]LEGEAA[αMeK]E[αMeF]IA[αMeF]VV[αMeK]GG-NH2) |  |  |  | 
